Measurements published in patent US20260354377A1, “INSECTICIDAL AND ARACHNIDICIDAL COMPOSITIONS AND USES THEREOF” (priority 2023, published 2026).
Entries after “also recorded” stand apart in the source; their conditions may differ. Values belong to the molecule of their own block, whether it stands above or below them.

What was measured:
[1] = Stability of aqueous dispersions of components; format: physicochemical; conditions: laboratory homogeniser dispersion in water
Blata orientalis [2] = assay: Evaluation of insecticidal effect of individual components (Example 9); format: in vivo, Oriental cockroach; conditions: 0.3 grams on back, pairs; for Alive: weight %: caprylic acid 0.8, Miglyol 0.2, Tween 80 0.015, lecithin 0.15, DPPG 0.12, xanthan gum 0.0075; for Dead: caprylic acid 0.8, Emulsion Table 1 5.0 weight %
Experimental: In order to evaluate the effect of individual components, the higher concentration of each was used, these are marked with an asterisk as presented in Table 9
The cockroach Blata orientalis was used as described in Example 1 part 3 because of its size, ease of application and predictable response to the formulation.
Pairs of insects were treated by applying 0.3 grams (ml) of test items from Table 9 above directly onto their backs following which individual insects were placed in separate plastic containers and observed over a period of one hour and overnight. A 5% aqueous dispersion of the emulsion from Table 1 and sterile distilled water were used as controls.

Blata orientalis [3] = assay: Efficacy of NAC and PCA supplemented Reactive Emulsions, spray (Example 13); format: in vivo, Oriental Cockroach; conditions: 50 mM citrate buffer, NAC or PCA 0.1%, emulsion 5% where present; for Alive / Immobile / Moribund: ten insects
Experimental: In one embodiment of the present invention, Reactive Emulsions of this invention are acidic and are kept at or below pH 5.5 to retain reactivity. For this reason 0.1% W/W solutions of NAC and PCA were prepared in 50 mM sodium citrate buffer at pH 5.0 and reduced fatty acid Reactive Emulsion concentrate (Table 15) was added to these at 5% by weight.
NAC and PCA controls were prepared by dissolving 0.1% of each in 50 mM sodium citrate buffer • reduced fatty acid Reactive Emulsions were used to illustrate the additive effect of NAC and PCA because the rate of activity of higher concentration fatty acid Emulsions would swamp the effect.
A 5% by weight suspension of Emulsion concentrate was prepared in 50 mM sodium citrate buffer without either NAC or PCA was prepared as a negative control and 50 mM buffer on its own was used as a blank.
(§1) The Oriental Cockroach Blata Orientalis was used to evaluate the efficacy of the NAC and PCA supplemented reactive emulsion and the experimental design was the same as in Example 1. Individual insects were lifted with tweezers and sprayed with either NAC or PCA supplemented test formulations, negative control or buffer blank, ten insects in each case, and evaluated after 1 hour and 10 hours.

[4] = Solubility and solution properties; conditions: for solubility: water or oil
Experimental: An aqueous dispersion of de-lipidised lecithin and DPPG is prepared by blending the component with water at the desired concentration and allowing at least one hour to fully hydrate.
Both of these are water soluble and may be added to the water phase of either the emulsion concentrate or the diluted suspension.

Blata orientalis [5] = assay: Efficacy of Permethrin delivered in reduced fatty acid Reactive Emulsion, spray (Example 12); format: in vivo, Oriental Cockroach; conditions: emulsion concentrates diluted to 5% in water, where present, 0.1%
Experimental: Permethrin was added to the oil phase at 2 grams in 20 of total oil (oil phase) which is 2% of the concentrated reactive emulsion. For use in the test the concentrate was diluted to 5% in water, that is 1% oil phase containing 0.1% Permethrin (10% of recommended dose).
A Reactive Emulsion control was prepared using the formulation in Table 13 by replacing Permethrin with Miglyol at 15% and free fatty acid at 5%.
as §1, with “non-reactive” for “NAC and PCA supplemented reactive”, “non-reactive” for “NAC or PCA supplemented”, “formulation, positive” for “formulations, negative”, “water” for “buffer”

lice = conditions: approved by FDA as a 1% solution; cited from earlier work
hematophagous insects = conditions: cited from earlier work

Compound: CCCCCCCC(=O)O [Caprylic acid]
- stability of aqueous dispersion [1]: co-acervate and settle out within minutes of being formed
- Alive (Blata orientalis [2]; 1 hour post treatment): 2
- Dead (Blata orientalis [2]; 18 hours post treatment): 1
- Dead (Blata orientalis [2]; 18 hours post treatment, listed as caprylic acid): one
- Alive (Blata orientalis [2]; 18 hours post treatment): 1

- stability of aqueous dispersion [1]: tendency to settle out
Compound: CCCCCCCCCCCCCCCC(=O)OCC(COP(=O)(O)OCC(O)CO)OC(=O)CCCCCCCCCCCCCCC (centres unmarked) [DPPG, di-palmitoyl phosphatidyl glycerol]
- Alive (Blata orientalis [2]; 1 hour post treatment): 2
- Alive (Blata orientalis [2]; 18 hours post treatment): 2

- pH in solution ([4]; in solution): slightly basic pH in solution
- solubility [4]: water soluble
Compound: CC(=O)N[C@@H](CS)C(=O)O [N-acetyl Cysteine, N-Acetyl Cysteine]
- Mortality / efficacy (Blata orientalis [3]; 1 hour, 60 min): 0%
- Mortality / efficacy (Blata orientalis [3]; 1 hour, listed as NAC): no effect
- Alive (Blata orientalis [3]; 1 hour): 10
- Immobile (Blata orientalis [3]; 1 hour): 0
- Moribund (Blata orientalis [3]; 1 hour): 0
- Mortality / efficacy (Blata orientalis [3]; 10 hours, 600 min): 10%
- Mortality / efficacy (Blata orientalis [3]; 10 hours, listed as NAC, 600 min): 10%
- Alive (Blata orientalis [3]; 10 hours): 9
- Immobile (Blata orientalis [3]; 10 hours): 1
- Moribund (Blata orientalis [3]; 10 hours): 0

Compound: CC1(C)C(C=C(Cl)Cl)C1C(=O)OCc1cccc(Oc2ccccc2)c1 (centres unmarked) [Permethrin]
- Mortality (Blata orientalis [5]; 1 hour): 0%
- Alive (Blata orientalis [5]; 1 hour, ten insects): 10
- Mortality / efficacy (Blata orientalis [5]; 10 hours, 600 min): 30%
- Alive (Blata orientalis [5]; 10 hours, ten insects): 7
- Immobile (Blata orientalis [5]; 10 hours, ten insects): 0
- Moribund (Blata orientalis [5]; 10 hours, ten insects): 3
- solubility [4]: sparingly soluble in water; also recorded: basically oil soluble
- effectiveness against lice (lice): effective against adult lice but not their eggs

Compound: CCC(C)OC(=O)N1CCCCC1CCO (centres unmarked) [Picaridin]
- repellent effect (hematophagous insects): broad spectrum effects combined with low toxicity

Compound: O=C1CCC(C(=O)O)N1 (centres unmarked) [Pyrrolidone Carboxylic Acid, 2-Pyrrolidone-5-Carboxylic Acid]
- Mortality / efficacy (Blata orientalis [3]; 1 hour): 0%
- Alive (Blata orientalis [3]; 1 hour): 10
- Immobile (Blata orientalis [3]; 1 hour): 0
- Moribund (Blata orientalis [3]; 1 hour): 0
- Mortality / efficacy (Blata orientalis [3]; 10 hours, 600 min): 20%
- Mortality / efficacy (Blata orientalis [3]; 10 hours, listed as PCA, 600 min): 20%
- Alive (Blata orientalis [3]; 10 hours): 8
- Immobile (Blata orientalis [3]; 10 hours): 0
- Moribund (Blata orientalis [3]; 10 hours): 2
